Assay [1] relates to TAC-stressed hearts. The assay is described as follows: TAC pressure-overload cardiac hypertrophy in mice treated with thiostrepton. The class given is in vivo. On the procedure: (§1) FoxM1 is a transcription factor that regulates the expression of genes associated with pathological hypertrophy. […] However, FoxM1 mRNA increased by 8.4-fold in TAC-stressed hearts (FIG. 6A), and the protein was present in the nuclei of both myocytes and endothelial cells of stressed hearts (FIGS. 6B and 6C). Because of the stress-induced endothelial expression of FoxM1, it was evaluated if FoxM1 cooperated with Brg1 to regulate Ace and Ace2 expression. The necessity of FoxM1 activation for cardiac hypertrophy by using FoxM1 inhibitor thiostrepton to inhibit FoxM1 in TAC-stressed hearts was tested. Within 4 weeks after TAC, the control mice injected with DMSO developed severe cardiac hypertrophy with increased ventricle-body weight ratio, interstitial fibrosis, and cardiac dysfunction with reduced left ventricular fractional shortening (FS) (FIGS. 6D, 6E, and 6G). […] Collectively, these findings indicate that FoxM1 activation by stress is necessary for cardiac myopathy and for stress-induced changes of Ace and Ace2.

Assay [2] concerns Ace and Ace2. The assay is described as follows: Western blot analysis of Ace and Ace2 in heart ventricles of thiostrepton treated mice after TAC. The settings on record: 2 weeks after TAC. The assay is classed as in vivo. The method, then:
as §1
(In general: In western blotting, separated proteins are transferred to a membrane and probed.)

The subject of assay [3] is Ace and Ace2 promoter. The assay is described as follows: Luciferase reporter assays of Ace and Ace2 proximal promoters in mouse cardiac endothelial cells. The assay is classed as cell-based. The note with it: MCEC cells. On the procedure:
The transcriptional activity of Brg1 on the Ace and Ace2 promoters was also tested. 3.1 kb of Ace upstream promoter (−2983 bp to +174 bp) and 7.8 Kb of Ace2 upstream promoter (−7063 bp to +786 bp) were cloned into the episomal reporter pREP4 that undergoes chromatinization in mammalian cells. The reporter constructs and Brg1-expressing plasmid were transfected into mouse cardiac endothelial cells. In these cells, Brg1 caused a 1.7-fold increase in Ace promoter activity and 59% reduction in Ace2 promoter activity (FIG. 5P). Combined with the ChIP results, these reporter studies indicate that Brg1 activates Ace promoter and represses Ace2 promoter, providing a mechanism for the antithetical changes of Ace and Ace2 in stressed hearts.
Inhibition of FoxM1 by thiostrepton eliminated the ability of Brg to activate Ace and repress Ace2 promoter (FIGS. 10F and 10G).

As for `C=C(NC(=O)C(=C)NC(=O)c1csc(C2=N[C@@H]3c4csc(n4)[C@H]4NC(=O)c5csc(n5)[C@H]([C@](C)(O)[C@@H](C)O)NC(=O)[C@H]5CSC(=N5)/C(=C/C)NC(=O)[C@H]([C@@H](C)O)NC(=O)c5csc(n5)[C@]3(CC2)NC(=O)[C@H](C)NC(=O)C(=C)NC(=O)[C@H](C)NC(=O)[C@H]([C@@H](C)CC)N[C@@H]2C=Cc3c([C@H](C)O)cc(nc3[C@H]2O)C(=O)O[C@@H]4C)n1)C(N)=O` [thiostrepton], in assay [1] (4 weeks after TAC, echocardiography, vs DMSO control), the “improvement of left ventricular fractional shortening (FS)” value was found to be 28%. In assay [1] (4 weeks after TAC, vs DMSO control), the “reduction of hypertrophy (ventricle-body weight ratio)” value is reported as about 50%. In addition, the cardiac dysfunction entry in assay [1] (within 4 weeks after TAC) is recorded as “lesser degree of cardiac dysfunction”. For the same compound, in assay [1] (within 4 weeks after TAC, trichrome staining), the interstitial fibrosis entry is given as “mild interstitial fibrosis”. Besides, the cardiac hypertrophy entry in assay [1] (within 4 weeks after TAC, vs DMSO control) is listed as “mild cardiac hypertrophy”. For the same compound, the “TAC-induced changes of Ace and Ace2” value in assay [2] (Western blot of heart ventricles) is recorded as “abolished”. For the same compound, the “reduction of Ace/Ace2 ratio in stressed hearts” value in assay [2] (Western blot quantitation) is 6.53 fold. For the same compound, the “ability of Brg to activate Ace and repress Ace2 promoter” value in assay [3] was “eliminated”.
